Experimental data: patent US11730819B2, “Peptide derivatives having novel linkage structures” (priority 2016, dated 2023)
Read-outs that look alike come from different tables or passages of the source. Numbered stars: 1 amine (or outer) side, 2 acyl side, 3 side chain; on linkers, the order of the positions; unused ones are H or OH. Bridge positions count the residues as written; N and C are the ends. Square brackets hold non-standard residues; d marks the D form. Peptide text beside a SMILES is read from it. 1Nal = N[C@@H](Cc1cccc2ccccc12)C(=O)O; TBMB = c1c(C[*:1])cc(C[*:3])cc1C[*:2]; Tle = CC(C)(C)[C@H](N)C(=O)O; βAla = NCCC(=O)O; Sar = CNCC(=O)O

Molecular target: T1, MT1-MMP hemopexin domain (Homo sapiens, UniProt P50281)
T1 construct: residues Cys319-Gly511 from the human gene; His6 (N); made in house; host or cells: HEK293 cells (transient, pEXPR-IBA42 vector)
Experiment: Fluorescence polarisation competition binding assay
Text: The MT1-MMP hemopexin-like repeats (also known as the MT1-MMP hemopexin domain), residues Cys319-Gly511 from the human gene, were transiently expressed in HEK293 cells as secreted N-terminally His6-tagged soluble protein, using the pEXPR-IBA42 (IBA) expression vector. Following expression, the protein was purified by Nickel-NTA affinity chromatography followed by gel filtration, and purity was checked by SDS-PAGE. Batch to batch variability was also monitored by fluorescence thermal shift experiments in the presence/absence of a hemopexin domain binding bicycle.
Binding affinity was measured using competition assays using Fluorescence Polarisation (anisotropy).
Fluoresceination may be performed on the N-terminal amino group of the peptide, which is separated from the bicycle core sequence by a sarcosine spacer (usually Sar5). This can be done during Fmoc solid phase synthesis or post-synthetically (after cyclisation with TBMB and purification) if the N-terminal amino group is unique to the peptide. Fluoresceination can also be performed on the C-terminus, usually on a Lysine introduced as the first C-terminal residue, which is then separated from the bicycle core sequence by a sarcosine spacer (usually Sar6). Thus, N-terminal tracers can have a molecular format described as Fluo-Gly-Sar5-A(BicycleCoreSequence), and (BicycleCoreSequence)-A-Sar6-K(Fluo) for a C-terminally fluoresceinated construct. Fluorescent tracers used in the Examples are A-(17-69)-A-Sar6-K(Fluo), A-(17-69-07)-A-Sar6-K(Fluo), and A-(17-69-12)-A-Sar6-K(Fluo).
Here, a pre-formed complex of PEX with the fluorescent PEX-binding tracer is titrated with free, non-fluoresceinated bicyclic peptide. Since all 17-69-based peptides are expected to bind at the same site, the titrant will displace the fluorescent tracer from PEX. Dissociation of the complex can be measured quantitatively, and the Kd of the competitor (titrant) to the target protein determined. The advantage of the competition method is that the affinities of non-fluoresceinated bicyclic peptides can be determined accurately and rapidly.
Subsequently, the non-fluorescent competitor bicyclic peptide (usually just the bicycle core sequence) is titrated, such that it displaces the fluorescent tracer from the target protein. The displacement of the tracer is measured and associated with a drop in fluorescence polarisation. The drop in fluorescence polarisation is proportional to the fraction of target protein bound with the non-fluorescent titrant, and thus is a measure of the affinity of titrant to target protein.
The raw data is fit to the analytical solution of the cubic equation that describes the equilibria between fluorescent tracer, titrant, and binding protein. The fit requires the value of the affinity of fluorescent tracer to the target protein, which can be determined separately by direct binding FP experiments (see previous section).

[1] = human MT1-MMP, bicycle peptides, read-out: Binding Affinity Ki (h)

| SMILES | Ki [1] [nM] | Kd [nM] | further results |
| --- | --- | --- | --- |
| C[C@H](N)C(=O)N[C@H]1CN(C)Cc2cc3cc(c2)CN(C)C[C@@H](C(N)=O)NC(=O)[C@H](C(C)(C)C)NC(=O)[C@H](CC(=O)O)NC(=O)[C@H](Cc2ccc(O)cc2)NC(=O)[C@H](Cc2ccccc2)NC(=O)[C@H](CC(=O)O)NC(=O)[C@H](CCC(=O)O)NC(=O)[C@H](CSC3)NC(=O)[C@@H](C)NC(=O)[C@H](Cc2cccc3ccccc23)NC(=O)[C@H](CCC(=O)O)NC(=O)[C@H](CC(N)=O)NC(=O)[C@@H](C)NC1=O [17-69-07-N452, A(Dap(Me))(D-Ala)NE(1Nal)(D-Ala)CEDFYD(tBuGly)(Dap(Me))] | 4 | – | – |
| CC(=O)N[C@@H](C)C(=O)N[C@H]1CNCc2cc3cc(c2)CSC[C@H](NC(=O)[C@@H](C)NC(=O)[C@H](Cc2cccc4ccccc24)NC(=O)[C@H](CCC(=O)O)NC(=O)[C@H](CC(N)=O)NC(=O)[C@@H](C)NC1=O)C(=O)N[C@@H](CCC(=O)O)C(=O)N[C@@H](CC(=O)O)C(=O)N[C@@H](Cc1ccccc1)C(=O)N[C@@H](Cc1ccccc1)C(=O)N[C@@H](CC(=O)O)C(=O)N[C@@H](C(C)(C)C)C(=O)N[C@H](C(N)=O)CNC3 [17-69-07-N428, Ac-A(Dap)(D-Ala)NE(1Nal)(D-Ala)CEDFF9D(tBuGly)(Dap)] | – | 3.5 | – |
| C#CCCC(=O)NCCC(=O)N(C)CC(=O)N(C)CC(=O)N(C)CC(=O)N(C)CC(=O)N(C)CC(=O)N(C)CC(=O)N(C)CC(=O)N(C)CC(=O)N(C)CC(=O)N(C)CC(=O)N[C@@H](C)C(=O)N[C@H]1CNCc2cc3cc(c2)CSC[C@H](NC(=O)[C@@H](C)NC(=O)[C@H](Cc2cccc4ccccc24)NC(=O)[C@H](CCC(=O)O)NC(=O)[C@H](CC(N)=O)NC(=O)[C@@H](C)NC1=O)C(=O)N[C@@H](CCC(=O)O)C(=O)N[C@@H](CC(=O)O)C(=O)N[C@@H](Cc1ccccc1)C(=O)N[C@@H](Cc1ccc(O)cc1)C(=O)N[C@@H](CC(=O)O)C(=O)N[C@@H](C(C)(C)C)C(=O)N[C@H](C(N)=O)CNC3 [17-69-07-N434, (PYA)-(B-Ala)-Sar10-A(Dap)(D-Ala)NE(1Nal)(D-Ala)CEDFYD(tBuGly)(Dap)] | – | 1.52 | – |
| C#CCCC(=O)N[C@@H](C)C(=O)N[C@H]1CN(C)Cc2cc3cc(c2)CN(C)C[C@@H](C(N)=O)NC(=O)[C@H](C(C)(C)C)NC(=O)[C@H](CC(=O)O)NC(=O)[C@H](Cc2ccc(O)cc2)NC(=O)[C@H](Cc2ccccc2)NC(=O)[C@H](CC(=O)O)NC(=O)[C@H](CCC(=O)O)NC(=O)[C@H](CSC3)NC(=O)[C@@H](C)NC(=O)[C@H](Cc2cccc3ccccc23)NC(=O)[C@H](CCC(=O)O)NC(=O)[C@H](CC(N)=O)NC(=O)[C@@H](C)NC1=O [17-69-07-N443, PYA-A(Dap(Me))(D-Ala)NE(1Nal)(D-Ala)CEDFYD(tBuGly)(Dap(Me))] | 3.2 | – | – |
| CC(=O)N[C@H]1CN(C)Cc2cc3cc(c2)CN(C)C[C@@H](C(N)=O)NC(=O)[C@H](C(C)(C)C)NC(=O)[C@H](CC(=O)O)NC(=O)[C@H](Cc2ccc(O)cc2)NC(=O)[C@H](Cc2ccccc2)NC(=O)[C@H](CC(=O)O)NC(=O)[C@H](CCC(=O)O)NC(=O)[C@H](CSC3)NC(=O)[C@@H](C)NC(=O)[C@H](Cc2cccc3ccccc23)NC(=O)[C@H](CCC(=O)O)NC(=O)[C@H](CC(N)=O)NC(=O)[C@@H](C)NC1=O [17-69-07-N461, Ac(Dap(Me))(D-Ala)NE(1Nal)(D-Ala)CEDFYD(tBuGly)(Dap(Me))] | 6 | – | – |
| C#CCCC(=O)N[C@H](CC(=O)O)C(=O)N[C@H](CC(=O)O)C(=O)N[C@H](CC(=O)O)C(=O)N(C)CC(=O)N(C)CC(=O)N[C@@H](C)C(=O)N[C@H]1CN(C)Cc2cc3cc(c2)CN(C)C[C@H](NC(=O)[C@@H](C)NC(=O)[C@H](Cc2cccc4ccccc24)NC(=O)[C@H](CCC(=O)O)NC(=O)[C@H](CC(N)=O)NC(=O)[C@@H](C)NC1=O)C(=O)N[C@@H](CCC(=O)O)C(=O)N[C@@H](CC(=O)O)C(=O)N[C@@H](Cc1ccccc1)C(=O)N[C@@H](Cc1ccc(O)cc1)C(=O)N[C@@H](CC(=O)O)C(=O)N[C@@H](C(C)(C)C)C(=O)N[C@H](C(N)=O)CSC3 [17-69-07-N473, (PYA)-(D-Asp)3-Sar2-A(Dap(Me))(D-Ala)NE(1Nal)(D-Ala)(Dap(Me))EDFYD(tBuGly)C] | – | – | Ki: 7.3 nM |
| C[C@H](NC(=O)CN(C)C(=O)CN(C)C(=O)CN(C)C(=O)CN(C)C(=O)CN(C)C(=O)CN(C)C(=O)CN(C)C(=O)CN(C)C(=O)CN(C)C(=O)CN(C)C(=O)CCN)C(=O)N[C@H]1CSCc2cc3cc(c2)CSC[C@H](NC(=O)[C@@H](C)NC(=O)[C@H](Cc2cccc4ccccc24)NC(=O)[C@H](CCC(=O)O)NC(=O)[C@H](CC(N)=O)NC(=O)[C@@H](C)NC1=O)C(=O)N[C@@H](CCC(=O)O)C(=O)N[C@@H](CC(=O)O)C(=O)N[C@@H](Cc1ccccc1)C(=O)N[C@@H](Cc1ccc(O)cc1)C(=O)N[C@@H](CC(=O)O)C(=O)N[C@@H](C(C)(C)C)C(=O)N[C@H](C(N)=O)CSC3 [17-69-07-N241, H-(β-Ala)-Sar10-Ala-Cys-(D-Ala)-Asn-Glu-(1Nal)-(D-Ala)-Cys-Glu-Asp-Phe-Tyr-Asp-(tBuGly)-Cys-NH2, reference compound] (H-[βAla][Sar][Sar][Sar][Sar][Sar][Sar][Sar][Sar][Sar][Sar]AC[dA]NE[1Nal][dA]CEDFYD[Tle]C-NH2; linker 13-19-26 via TBMB) | – | 0.23 | – |
| CC(=O)N[C@@H](C)C(=O)N[C@H]1CN(C)Cc2cc3cc(c2)CN(C)C[C@H](NC(=O)[C@@H](C)NC(=O)[C@H](Cc2cccc4ccccc24)NC(=O)[C@H](CCC(=O)O)NC(=O)[C@H](CC(N)=O)NC(=O)[C@@H](C)NC1=O)C(=O)N[C@@H](CCC(=O)O)C(=O)N[C@@H](CC(=O)O)C(=O)N[C@@H](Cc1ccccc1)C(=O)N[C@@H](Cc1ccc(O)cc1)C(=O)N[C@@H](CC(=O)O)C(=O)N[C@@H](C(C)(C)C)C(=O)N[C@H](C(N)=O)CSC3 [17-69-07-N470, Ac-A(Dap(Me))(D-Ala)NE(1Nal)(D-Ala)(Dap(Me))EDFYD(tBuGly)C] | – | – | Ki: 8.3 nM |
| CC(=O)NCCC(=O)N(C)CC(=O)N(C)CC(=O)N(C)CC(=O)N(C)CC(=O)N(C)CC(=O)N(C)CC(=O)N(C)CC(=O)N(C)CC(=O)N(C)CC(=O)N(C)CC(=O)N[C@@H](C)C(=O)N[C@H]1CN(C)Cc2cc3cc(c2)CN(C)C[C@@H](C(N)=O)NC(=O)[C@H](C(C)(C)C)NC(=O)[C@H](CC(=O)O)NC(=O)[C@H](Cc2ccc(O)cc2)NC(=O)[C@H](Cc2ccccc2)NC(=O)[C@H](CC(=O)O)NC(=O)[C@H](CCC(=O)O)NC(=O)[C@H](CSC3)NC(=O)[C@@H](C)NC(=O)[C@H](Cc2cccc3ccccc23)NC(=O)[C@H](CCC(=O)O)NC(=O)[C@H](CC(N)=O)NC(=O)[C@@H](C)NC1=O [17-69-07-N454, Ac-(B-Ala)-Sar10-A(Dap(Me))(D-Ala)NE(1Nal)(D-Ala)CEDFYD(tBuGly)(Dap(Me))] | 3 | – | – |
| CC(=O)N[C@@H](C)C(=O)N[C@H]1CN(C)Cc2cc3cc(c2)CN(C)C[C@@H](C(N)=O)NC(=O)[C@H](C(C)(C)C)NC(=O)[C@H](CC(=O)O)NC(=O)[C@H](Cc2ccc(O)cc2)NC(=O)[C@H](Cc2ccccc2)NC(=O)[C@H](CC(=O)O)NC(=O)[C@H](CCC(=O)O)NC(=O)[C@H](CSC3)NC(=O)[C@@H](C)NC(=O)[C@H](Cc2cccc3ccccc23)NC(=O)[C@H](CCC(=O)O)NC(=O)[C@H](CC(N)=O)NC(=O)[C@@H](C)NC1=O [17-69-07-N426, Ac-A(Dap(Me))(D-Ala)NE(1Nal)(D-Ala)CEDFYD(tBuGly)(Dap(Me))] | – | – | Kd (competition FP, bicycle peptides, read-out: measured affinity (Kd) to MT1-MMP): 0.36 nM |
| CC(=O)N[C@@H](C)C(=O)N[C@H]1CNCc2cc3cc(c2)CSC[C@H](NC(=O)[C@@H](C)NC(=O)[C@H](Cc2cccc4ccccc24)NC(=O)[C@H](CCC(=O)O)NC(=O)[C@H](CC(N)=O)NC(=O)[C@@H](C)NC1=O)C(=O)N[C@@H](CCC(=O)O)C(=O)N[C@@H](CC(=O)O)C(=O)N[C@@H](Cc1ccccc1)C(=O)N[C@@H](Cc1ccc(O)cc1)C(=O)N[C@@H](CC(=O)O)C(=O)N[C@@H](C(C)(C)C)C(=O)N[C@H](C(N)=O)CNC3 [17-69-07-N385, Ac-A(Dap)(D-Ala)NE(1Nal)(D-Ala)CEDFYD(tBuGly)(Dap)] | – | 0.45 | – |
| C#CCCC(=O)NCCC(=O)N(C)CC(=O)N(C)CC(=O)N(C)CC(=O)N(C)CC(=O)N(C)CC(=O)N[C@@H](C)C(=O)N[C@H]1CN(C)Cc2cc3cc(c2)CN(C)C[C@@H](C(N)=O)NC(=O)[C@H](C(C)(C)C)NC(=O)[C@H](CC(=O)O)NC(=O)[C@H](Cc2ccc(O)cc2)NC(=O)[C@H](Cc2ccccc2)NC(=O)[C@H](CC(=O)O)NC(=O)[C@H](CCC(=O)O)NC(=O)[C@H](CSC3)NC(=O)[C@@H](C)NC(=O)[C@H](Cc2cccc3ccccc23)NC(=O)[C@H](CCC(=O)O)NC(=O)[C@H](CC(N)=O)NC(=O)[C@@H](C)NC1=O [17-69-07-N472, (PYA)-(B-Ala)-Sar5-A(Dap(Me))(D-Ala)NE(1Nal)(D-Ala)CEDFYD(tBuGly)(Dap(Me))] | 3.4 | – | – |
